According to patent US10597388B2, “Pyridazinone herbicides” (FMC CORPORATION, priority 2014, dated 2020):

What was measured:
Format in all cases: in vivo
[1] = system: pigweed (Amaranthus retroflexus); assay: Test A greenhouse herbicide test, pre- and postemergence
In short: (§1)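 Visual injury ratings, 0 (no effect) to 100 (complete control), versus untreated plants after roughly 10 d in a greenhouse. Compounds, formulated in a surfactant-containing non-phytotoxic solvent, were sprayed on loam–sand soil after sowing (pre) or on one- to two-leaf plants 2–10 cm tall (post).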

[2] = system: ryegrass, Italian (Italian ryegrass, Lolium multiflorum); assay: as above
In short: as §1

[3] = system: foxtail, giant (giant foxtail, Setaria faberii); assay: as above
In short: as §1

kochia (Kochia scoparia) = assay: as above
In short: as §1

[4] = system: ragweed (common ragweed, Ambrosia elatior); assay: as above
In short: as §1

[5] = system: wheat (Triticum aestivum); assay: as above; conditions: Postemergence
In short: as §1

corn (Zea mays) = assay: as above; conditions: Postemergence
In short: as §1

[6] = system: galium (catchweed bedstraw, Galium aparine); assay: Test C greenhouse herbicide test, pre- and postemergence
In short: (§2)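 Greenhouse pots; pre-em on seeded loam:sand blend, post-em on 2–18 cm plants (1–4 leaf) in sphagnum peat/vermiculite medium. Formulation: non-phytotoxic solvent + surfactant. Read-out: visual % control (0–100) vs controls at 13–15 d.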

[7] = system: velvetleaf (Abutilon theophrasti); assay: as above
In short: as §2

[8] = system: oilseed rape (Brassica napus); assay: as above
In short: as §2

[9] = system: nutsedge, yellow (yellow nutsedge, Cyperus esculentus); assay: as above
In short: as §2

[10] = Postemergence, 125 g ai/ha, 0 to 100 scale where 0 is no effect and 100 is complete control
[11] = Postemergence, 500 g ai/ha, 0 to 100 scale, 0 is no effect, 100 is complete control
[12] = Preemergence, 125 g ai/ha, 0 to 100 scale where 0 is no effect and 100 is complete control
[13] = Preemergence, 500 g ai/ha, 0 to 100 scale, 0 no effect, 100 complete control
[14] = 125 g ai/ha, 0 to 100 scale where 0 is no effect and 100 is complete control
[15] = 500 g ai/ha, 0 to 100 scale, 0 is no effect, 100 is complete control
[16] = Postemergence, 31 g ai/ha, 0 to 100 scale (0 no effect, 100 complete control)
[17] = Postemergence, 125 g ai/ha, scale 0 to 100, 0 is no effect, 100 is complete control
[18] = Postemergence, 250 g ai/ha, scale 0 to 100, 0 no effect, 100 complete control, 13 to 15 d
[19] = Preemergence, 31 g ai/ha, scale 0 to 100, 0 is no effect, 100 is complete control
[20] = Preemergence, 62 g ai/ha, scale 0 to 100, 0 is no effect, 100 is complete control
[21] = Preemergence, 125 g ai/ha, scale 0 to 100, 0 is no effect, 100 is complete control
[22] = Preemergence, 250 g ai/ha, scale 0 to 100 (0 no effect, 100 complete control)
[23] = postemergence, 62 g ai/ha, scale 0 to 100, 0 no effect, 100 complete control

SMILES: COc1nn(C)c(=O)c(-c2c(C)ccc3ccccc23)c1O [Compound 54]
- Plant response rating, Pigweed [1, 10]: 90
- Pigweed plant response rating [1, 11]: 100
- Pigweed plant response rating [1, 12]: 100
- Plant response rating, Pigweed [1, 13]: 100
- Plant response rating, Ryegrass, Italian [2, 10]: 60
- Ryegrass, Italian plant response rating [2, 11]: 100
- Ryegrass, Italian plant response rating [2, 12]: 30
- Plant response rating, Ryegrass, Italian [2, 13]: 100
- Plant response rating, Foxtail, Giant [3, 10]: 60
- Foxtail, Giant plant response rating [3, 11]: 90
- Foxtail, Giant plant response rating [3, 12]: 60
- Plant response rating, Foxtail, Giant [3, 13]: 100
- Plant response rating, Kochia (kochia (Kochia scoparia); [10]): 100
- Kochia plant response rating (kochia (Kochia scoparia); [11]): 100
- Kochia plant response rating (kochia (Kochia scoparia); [12]): 50
- Plant response rating, Kochia (kochia (Kochia scoparia); [13]): 100
- Plant response rating, Ragweed [4, 10]: 100
- Ragweed plant response rating [4, 11]: 100
- Ragweed plant response rating [4, 12]: 90
- Plant response rating, Ragweed [4, 13]: 100
- Plant response rating, Wheat [5, 14]: 20
- Wheat plant response rating [5, 15]: 20
- Plant response rating, Corn (corn (Zea mays); [14]): 20
- Corn plant response rating (corn (Zea mays); [15]): 30
- Galium plant response rating [6, 16]: 95
- Plant response rating, Galium [6, 17]: 98
- Plant response rating, Galium [6, 18]: 98
- Plant response rating, Galium [6, 19]: 95
- Plant response rating, Galium [6, 20]: 95
- Plant response rating, Galium [6, 21]: 100
- Galium plant response rating [6, 22]: 100
- Galium plant response rating [6, 23]: 98
- Velvetleaf plant response rating [7, 16]: 45
- Plant response rating, Velvetleaf [7, 17]: 98
- Plant response rating, Velvetleaf [7, 18]: 100
- Plant response rating, Velvetleaf [7, 19]: 80
- Plant response rating, Velvetleaf [7, 20]: 85
- Plant response rating, Velvetleaf [7, 21]: 90
- Velvetleaf plant response rating [7, 22]: 95
- Velvetleaf plant response rating [7, 23]: 90
- Oilseed Rape plant response rating [8, 16]: 70
- Plant response rating, Oilseed Rape [8, 17]: 40
- Plant response rating, Oilseed Rape [8, 18]: 70
- Plant response rating, Oilseed Rape [8, 19]: 70
- Plant response rating, Oilseed Rape [8, 20]: 90
- Plant response rating, Oilseed Rape [8, 21]: 90
- Oilseed Rape plant response rating [8, 22]: 100
- Oilseed Rape plant response rating [8, 23]: 80
- Nutsedge, Yellow plant response rating [9, 16]: 10
- Plant response rating, Nutsedge, Yellow [9, 17]: 55
- Plant response rating, Nutsedge, Yellow [9, 18]: 70
- Plant response rating, Nutsedge, Yellow [9, 19]: 5
- Plant response rating, Nutsedge, Yellow [9, 20]: 5
- Plant response rating, Nutsedge, Yellow [9, 21]: 25
- Nutsedge, Yellow plant response rating [9, 22]: 70
- Nutsedge, Yellow plant response rating [9, 23]: 35
